Some test systems named below: A498 renal; HCT-15 colon; HOP-62 NSCLC; MOLT-4 leukemia; SF-295 CNS; SK-OV-3 ovarian; SNB-75 CNS; SW-620 colon; DU-145 prostate; UACC-62 melanoma.
Holding throughout (assay): NCI anticancer screen, dose series, 48 h

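The compound was tested at five concentrations on cells cultured in 96-well plates, with a 48-hour exposure period. At the GI50, growth is halved. Definition used: TGI = concentration required for complete inhibition of growth.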 Where a SMILES comes first, the peptide text is derived from it. [ ]: non-standard residue; d: D form.

Regarding `COP(=O)(CP(=O)(OC)OCCC(C)CCC=C(C)C)OC` (stereo unspecified), the TGI in the assay with A498 renal, with HCT-15 colon, in the assay with HOP-62 NSCLC, with MOLT-4 leukemia, with SF-295 CNS and with SK-OV-3 ovarian was over 100 µM in each case. The TGI in the assay on SNB-75 CNS and in the assay with SW-620 colon was over 100 µM throughout.
On to `O=C1CCCC1CC(CN1CCOCC1)Sc1nnnn1-c1ccccc1` (stereo unspecified), for which the TGI with A498 renal, in the assay on DU-145 prostate, in the assay with HOP-62 NSCLC, in the assay on MOLT-4 leukemia, with SF-295 CNS and with SK-OV-3 ovarian was over 100 µM in each case. In addition, the figures for the TGI with SNB-75 CNS, in the assay with SW-620 colon and with UACC-62 melanoma were 96.7 µM, over 100 µM and over 100 µM, respectively.
With `O=S(=O)(O)c1cc(S(=O)(=O)O)c2cc(N=Nc3ccc(N=Nc4ccc(/C=C/c5ccc(N=[N+]([O-])c6ccc(/C=C/c7ccc(N=Nc8ccc(N=Nc9ccc%10cc(S(=O)(=O)O)cc(S(=O)(=O)O)c%10c9)cc8)cc7S(=O)(=O)O)c(S(=O)(=O)O)c6)cc5S(=O)(=O)O)c(S(=O)(=O)O)c4)cc3)ccc2c1`, the TGI in the assay with A498 renal was over 100 µM; with HCT-15 colon, over 100 µM; in the assay with HOP-62 NSCLC, over 100 µM; with MOLT-4 leukemia, over 100 µM; in the assay on SF-295 CNS, over 74.3 µM; in the assay with SK-OV-3 ovarian, over 100 µM. Moreover, the results for the TGI in the assay on SNB-75 CNS and in the assay with UACC-62 melanoma were over 100 µM and 65.4 µM, respectively.
As for `Cc1ccc(/C=c2\c(=O)[nH]c3nc4ccccc4c(=O)n23)cc1`, the TGI in the assay on DU-145 prostate, with HCT-15 colon, in the assay with HOP-62 NSCLC, with MOLT-4 leukemia, in the assay on SF-295 CNS and in the assay on SK-OV-3 ovarian was over 100 µM throughout. Besides, the TGI was 75.6 µM in the assay with SNB-75 CNS, 48.8 µM in the assay on SW-620 colon and over 100 µM in the assay on UACC-62 melanoma.
For the compound `N#CC1=C(O)NC(O)=C(C#N)C1c1c(Cl)cccc1Cl`, the TGI is 64.5 µM in the assay with A498 renal; 51.9 µM in the assay on HCT-15 colon; 67.8 µM in the assay on HOP-62 NSCLC; over 100 µM with MOLT-4 leukemia; over 100 µM in the assay with SF-295 CNS; 69.1 µM in the assay on SK-OV-3 ovarian. In addition, the TGI in the assay with SNB-75 CNS is 48.4 µM; in the assay on SW-620 colon it was over 100 µM; in the assay on UACC-62 melanoma it was over 100 µM.
On to `C=C1c2c(n(S(=O)(=O)c3ccccc3)c3ccccc23)[C@@]2(C(=O)OC)CC3C=CC2N1C3`, for which the TGI with DU-145 prostate, in the assay on HCT-15 colon, in the assay on HOP-62 NSCLC, in the assay with MOLT-4 leukemia, in the assay with SF-295 CNS and with SK-OV-3 ovarian was over 100 µM in each case. Besides, the TGI in the assay with SNB-75 CNS, in the assay with SW-620 colon and in the assay with UACC-62 melanoma was over 100 µM throughout.
As to `CC(=O)/C=C(/C)[O-].CC(=O)/C=C(/C)[O-].CC(=O)[CH-]C(C)=O.CC(=O)[CH-]C(C)=O.[Zr+4]`, the GI50 with A498 renal, with HOP-62 NSCLC, in the assay on MOLT-4 leukemia, in the assay with SK-OV-3 ovarian, with SNB-75 CNS and in the assay on UACC-62 melanoma was over 100 µM each time. The TGI in the assay on A498 renal, in the assay on HOP-62 NSCLC, with MOLT-4 leukemia, in the assay on SK-OV-3 ovarian, in the assay with SNB-75 CNS and with UACC-62 melanoma was over 100 µM each time.
For `CC(C)C[C@H](NC(=O)[C@H](CC(C)C)NC(=O)[C@@H](Cc1c[nH]c2ccccc12)NC(=O)[C@H](Cc1ccccc1)NC(=O)[C@@H](Cc1c[nH]c2ccccc12)NC(=O)[C@H](CCC(N)=O)NC(=O)[C@@H](CCC(N)=O)NC(=O)[C@@H]1CCCN1C(=O)[C@@H](CCCCN)NC(=O)[C@H]1CCCN1C(=O)[C@H](N)CCCN=C(N)N)C(N)=O` (H-[dR][dP][dK]P[dQ]Q[dW]F[dW]LL-NH2), the TGI with A498 renal was 88.1 µM; in the assay on HCT-15 colon, over 100 µM; with HOP-62 NSCLC, over 100 µM; in the assay with MOLT-4 leukemia, over 79.5 µM; with SF-295 CNS, over 100 µM; in the assay with SK-OV-3 ovarian, over 100 µM. In addition, the TGI in the assay with SNB-75 CNS, in the assay with SW-620 colon and in the assay on UACC-62 melanoma was over 100 µM throughout.
Consider `O=C1C(Cl)N(c2ccc([N+](=O)[O-])cc2)C1c1c[nH]c2ccccc12` (stereo unspecified), for which the TGI in the assay on HOP-62 NSCLC, in the assay on MOLT-4 leukemia, in the assay with SF-295 CNS, with SK-OV-3 ovarian, in the assay with SNB-75 CNS and in the assay with SW-620 colon was over 100 µM each time. In the assay with UACC-62 melanoma, this compound registered a TGI of over 100 µM.
For the compound `CCCCCCc1ccc(CCCCCCCC(=O)O)o1`, the TGI in the assay with DU-145 prostate was over 100 µM; in the assay with HCT-15 colon, over 100 µM; in the assay with HOP-62 NSCLC it was over 100 µM; with MOLT-4 leukemia, 36.1 µM; in the assay on SF-295 CNS it was over 100 µM; with SK-OV-3 ovarian, over 100 µM. Also, the TGI in the assay with SNB-75 CNS and in the assay on SW-620 colon was over 100 µM in each case.
Take `Clc1nc2nc(N3CCNCC3)nc(N3CCCC3)c2[nH]1`: the TGI in the assay with DU-145 prostate was 30.9 µM; in the assay on HCT-15 colon, 35.3 µM; in the assay with HOP-62 NSCLC it was 36.2 µM; with MOLT-4 leukemia, 43.1 µM; with SF-295 CNS it was 38.2 µM; in the assay with SK-OV-3 ovarian, 37.2 µM. Further, the TGI with SNB-75 CNS stood at 36 µM; with SW-620 colon, 45.4 µM; in the assay with UACC-62 melanoma it was 31.8 µM.
For `CCCCCc1cc2cc3c(c(O)c2c(=O)[nH]1)C1(CCC3)C(=O)c2c(O)ccc(O)c2C1=O`, the TGI in the assay with A498 renal, in the assay with DU-145 prostate, with HCT-15 colon, with HOP-62 NSCLC, with MOLT-4 leukemia and in the assay on SF-295 CNS was over 100 µM each time. The TGI in the assay with SNB-75 CNS and in the assay on SW-620 colon was over 100 µM throughout.
`Cc1ccc2sc3c(NCCCN)nc4ccccc4c3c(=O)c2c1`: the GI50 is 1.87 µM with A498 renal; 1.87 µM in the assay on DU-145 prostate; 1.61 µM in the assay on HCT-15 colon; 1.8 µM with SF-295 CNS; 1.64 µM in the assay on SNB-75 CNS; 1.79 µM in the assay on SW-620 colon. Moreover, the GI50 in the assay with UACC-62 melanoma is 1.74 µM. Besides, the TGI was found to be 4.64 µM with A498 renal; 3.39 µM in the assay with DU-145 prostate; 3.15 µM in the assay with HCT-15 colon; 3.32 µM in the assay on SF-295 CNS; 3.56 µM with SNB-75 CNS; 3.54 µM in the assay with SW-620 colon. Also, the TGI with UACC-62 melanoma turned out to be 3.24 µM.
Regarding `Cc1cc(C)[n+]2c(c1)C=CC2`, the TGI with HOP-62 NSCLC is over 100 µM; with SF-295 CNS it was 71.8 µM; in the assay with SNB-75 CNS, 41.9 µM; in the assay on SW-620 colon it was over 100 µM.
Regarding `O=C(CCCCCNC(=O)c1ccc(Cl)cc1)NO`, the TGI with DU-145 prostate was over 100 µM; with HCT-15 colon, over 100 µM; with MOLT-4 leukemia, over 100 µM; in the assay on SF-295 CNS it was 36.1 µM; in the assay with SK-OV-3 ovarian, 41 µM; in the assay on SNB-75 CNS, 30.8 µM. Further, the TGI in the assay on SW-620 colon was over 100 µM; with UACC-62 melanoma it was 12.1 µM.
With `COCC(C#N)NC1CC(OC2CC(O)(C(=O)CO)Cc3c(O)c4c(c(O)c32)C(=O)c2c(OC)cccc2C4=O)OC(C)C1O` (stereo unspecified), the TGI in the assay on A498 renal stood at 0.448 µM; in the assay on HCT-15 colon, 12.8 µM; with HOP-62 NSCLC, 0.261 µM; with MOLT-4 leukemia, 0.0471 µM; with SF-295 CNS, 1.9 µM; in the assay on SK-OV-3 ovarian, 10.6 µM. For the same compound, the results for the TGI in the assay on SNB-75 CNS, in the assay with SW-620 colon and in the assay with UACC-62 melanoma were 0.373 µM, 4.8 µM and 0.21 µM, respectively.
On to `COC1(OC)CC(CO)(COc2cc(Cl)nc(N)n2)C1`, for which the TGI in the assay on DU-145 prostate, in the assay on HCT-15 colon, with HOP-62 NSCLC, in the assay on MOLT-4 leukemia, in the assay on SF-295 CNS and in the assay on SK-OV-3 ovarian was over 100 µM each time. The TGI in the assay with SNB-75 CNS, with SW-620 colon and in the assay on UACC-62 melanoma was over 100 µM in each case.
As for `CC1(C)CC(=O)c2c(N)n[nH]c2C1`, the TGI in the assay on A498 renal, in the assay with DU-145 prostate, in the assay with HOP-62 NSCLC, in the assay on MOLT-4 leukemia, with SF-295 CNS and with SNB-75 CNS was over 100 µM each time. In addition, the TGI with SW-620 colon and in the assay on UACC-62 melanoma was over 100 µM each time.
On to `NS(=O)(=O)c1ccc(-c2ccc([As](=O)(O)O)cc2)cc1`, for which the TGI in the assay on DU-145 prostate, in the assay with HCT-15 colon, in the assay with HOP-62 NSCLC, in the assay with MOLT-4 leukemia, in the assay with SF-295 CNS and with SK-OV-3 ovarian was over 100 µM in each case. Moreover, the TGI in the assay with SNB-75 CNS, in the assay on SW-620 colon and with UACC-62 melanoma was over 100 µM in each case.
With `O=C1Sc2ccccc2C(=O)N2CCSC12` (stereo unspecified), the TGI with A498 renal, in the assay with HCT-15 colon, in the assay with HOP-62 NSCLC, in the assay with MOLT-4 leukemia, with SF-295 CNS and in the assay with SK-OV-3 ovarian was over 100 µM throughout. The TGI in the assay on SW-620 colon and with UACC-62 melanoma was over 100 µM in each case.
As to `[N-]=[N+]=Nc1cc(=O)[nH]c2ccccc12`, the TGI with HOP-62 NSCLC, in the assay with MOLT-4 leukemia, in the assay with SF-295 CNS, with SK-OV-3 ovarian, in the assay on SNB-75 CNS and in the assay with SW-620 colon was over 100 µM each time. Besides, the TGI in the assay on UACC-62 melanoma is over 100 µM.

(Values after PubChem BioAssay (NCI).)
